Reference: patent US8338426B2, “Piperazinyl derivatives useful as modulators of the neuropeptide Y2 receptor” (Janssen Pharmaceutica NV, priority 2007, dated 2012)

How the values were obtained:
hY2 = molecular target: T1, hY2 (Homo sapiens, UniProt P49146); assay: Ca2+ mobilization assay (FLIPR) in KAN-Ts cells; format: cell-based; conditions: KANT-S cells, inhibition of PYY stimulated Ca2+ increase, read-out: hY2 pKB (converted)
T1 construct: KAN-Ts endogenously expressing Y2 receptors were used; endogenous in cells; host or cells: KAN-Ts cells stably expressing chimeric G proteins
T1 sequence (P49146 1-381): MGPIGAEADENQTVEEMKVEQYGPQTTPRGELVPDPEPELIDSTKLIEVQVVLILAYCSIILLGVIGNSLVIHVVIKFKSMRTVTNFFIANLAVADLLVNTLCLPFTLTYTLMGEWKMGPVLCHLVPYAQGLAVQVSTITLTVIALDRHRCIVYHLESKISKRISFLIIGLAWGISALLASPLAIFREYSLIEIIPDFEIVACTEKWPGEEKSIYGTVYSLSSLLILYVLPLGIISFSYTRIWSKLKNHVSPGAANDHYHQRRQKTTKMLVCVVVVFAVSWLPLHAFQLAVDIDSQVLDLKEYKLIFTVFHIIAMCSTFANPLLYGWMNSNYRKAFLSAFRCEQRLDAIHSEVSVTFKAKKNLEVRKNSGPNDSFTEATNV
Experimental: The assay was performed using the fluorimetric imaging plate reader (FLIPR) format as described in Dautzenberg, F. M., Biochemical Pharmacology 2005, 69, 1493.
KAN-Ts cells stably expressing chimeric G proteins were seeded at a density of 100,000 cells into poly-d-lysine coated 384-well blackwall, clear-bottom microtiter plates (Corning, N.Y.). One day later, the medium was removed and 50 μl loading medium DMEM high glucose, without serum, supplemented with 10 mM HEPES-acid, 0.1% BSA, 5 mM probenecid and 2 μM Fluo-3AM was added. Cells were loaded for 1 h at 37° C., washed twice with 50 μl assay buffer (5 mM HEPES-acid, 140 mM NaCl, 1 mM MgCl2, 5 mM KCl, 10 mM glucose) and then 30 μl assay buffer was added. Cells were further pre-incubated at room temperature before adding agonists or agonists plus antagonists in 20 μl assay buffer and then measured on a T-channel fluorometric imaging plate reader (FLIPR, Molecular Devices, Sunnyvale, Calif.).
Antagonistic potency values were converted to apparent pKB values using a modified Cheng-Prusoff correction. Apparent pKB=−log IC50/1+[conc agonist/EC50]. Data below are expressed as mean±S.E.M.
The in vitro antagonistic properties of the compound of formula (A) were confirmed using Ca^2+ measurement.

mouse Y2 receptor = molecular target: T2, mouse Y2 receptor (Mus musculus, UniProt P97295); assay: Neuropeptide Y2 radioligand binding assay, [125I]PYY, mouse hippocampus membranes; conditions: read-out: mY2 pKi (converted)
T2 construct: membranes from rat or mouse hippocampus were prepared; from tissue; host or cells: mouse hippocampus membranes
T2 sequence (P97295 1-381): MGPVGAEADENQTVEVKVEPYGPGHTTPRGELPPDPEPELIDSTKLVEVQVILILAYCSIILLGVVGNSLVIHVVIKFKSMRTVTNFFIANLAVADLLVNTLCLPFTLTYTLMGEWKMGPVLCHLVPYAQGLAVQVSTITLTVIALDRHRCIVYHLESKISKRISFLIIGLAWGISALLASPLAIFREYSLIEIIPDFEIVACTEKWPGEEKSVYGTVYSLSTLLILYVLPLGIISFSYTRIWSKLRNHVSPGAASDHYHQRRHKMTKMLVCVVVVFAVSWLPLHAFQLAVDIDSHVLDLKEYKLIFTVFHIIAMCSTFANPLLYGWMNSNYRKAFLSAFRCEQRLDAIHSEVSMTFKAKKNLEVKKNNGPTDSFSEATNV
Experimental: Radioligand binding assays for the human and rat/mouse Y2 receptor were performed as described in Bonaventure, P., D. Nepomuceno, C. Mazur, B. Lord, D. A. Rudolph, J. A. Jablonowski, N. I. Carruthers and T. W. Lovenberg, J Pharmacol Exp Ther. 2004, 308, 1130.
KAN-Ts endogenously expressing Y2 receptors were used, for the rat and mouse Y2 receptor, membranes from rat or mouse hippocampus were prepared. Membranes were incubated with [^125I]PYY (80 pM) in the presence or absence of test compound for 1 h at rt. The reaction was stopped by filtration through GF/C filter plates pre-soaked in 0.3% polyethylenimine and subsequently washed with Tris-HCl, 50 mM, 5 mM EDTA buffer. Plates were dried for 1 h in a 55° C. oven, scintillation fluid was added and the radioactivity was counted in a Packard TopCount. Specific binding to the NPY receptor subtypes was determined by radioactivity that was bound in the presence of 1 μM NPY.
Apparent Ki values were calculated as K=IC50/(1+C/KD), where C is concentration of the radioligand and pKi=−log Ki. Data presented below are expressed as mean±S.E.M.

MTP = MTP (Homo sapiens, UniProt P55157); assay: MTP assay (triglyceride transfer between vesicles); format: biochemical; conditions: read-out: MTP pIC50 (converted)
Chain of MTP (P55157 19-894, species assumed): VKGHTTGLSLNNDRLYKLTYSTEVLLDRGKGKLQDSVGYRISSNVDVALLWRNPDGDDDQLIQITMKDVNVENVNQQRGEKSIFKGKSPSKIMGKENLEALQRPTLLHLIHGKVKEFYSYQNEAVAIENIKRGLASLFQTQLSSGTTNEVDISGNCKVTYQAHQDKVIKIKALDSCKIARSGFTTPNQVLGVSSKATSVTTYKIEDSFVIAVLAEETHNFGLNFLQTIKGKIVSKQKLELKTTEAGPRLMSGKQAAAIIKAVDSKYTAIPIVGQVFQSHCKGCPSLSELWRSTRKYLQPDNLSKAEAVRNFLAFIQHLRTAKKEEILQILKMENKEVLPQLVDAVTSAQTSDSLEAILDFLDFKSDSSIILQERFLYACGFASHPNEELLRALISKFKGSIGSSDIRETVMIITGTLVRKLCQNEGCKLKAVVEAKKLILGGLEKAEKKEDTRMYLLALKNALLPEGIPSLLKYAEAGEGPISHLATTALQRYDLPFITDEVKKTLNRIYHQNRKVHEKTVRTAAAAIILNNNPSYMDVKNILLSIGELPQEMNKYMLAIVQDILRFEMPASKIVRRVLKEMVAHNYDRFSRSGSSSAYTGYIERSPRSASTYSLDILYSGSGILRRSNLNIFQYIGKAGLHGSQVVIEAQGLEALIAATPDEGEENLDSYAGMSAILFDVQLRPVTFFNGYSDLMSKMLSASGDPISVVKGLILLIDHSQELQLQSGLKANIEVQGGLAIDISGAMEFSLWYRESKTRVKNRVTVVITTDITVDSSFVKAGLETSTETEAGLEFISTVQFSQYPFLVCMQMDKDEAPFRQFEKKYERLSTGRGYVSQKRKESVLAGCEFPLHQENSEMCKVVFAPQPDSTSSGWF
Chain of MTP (P07237 18-508 partner, species assumed): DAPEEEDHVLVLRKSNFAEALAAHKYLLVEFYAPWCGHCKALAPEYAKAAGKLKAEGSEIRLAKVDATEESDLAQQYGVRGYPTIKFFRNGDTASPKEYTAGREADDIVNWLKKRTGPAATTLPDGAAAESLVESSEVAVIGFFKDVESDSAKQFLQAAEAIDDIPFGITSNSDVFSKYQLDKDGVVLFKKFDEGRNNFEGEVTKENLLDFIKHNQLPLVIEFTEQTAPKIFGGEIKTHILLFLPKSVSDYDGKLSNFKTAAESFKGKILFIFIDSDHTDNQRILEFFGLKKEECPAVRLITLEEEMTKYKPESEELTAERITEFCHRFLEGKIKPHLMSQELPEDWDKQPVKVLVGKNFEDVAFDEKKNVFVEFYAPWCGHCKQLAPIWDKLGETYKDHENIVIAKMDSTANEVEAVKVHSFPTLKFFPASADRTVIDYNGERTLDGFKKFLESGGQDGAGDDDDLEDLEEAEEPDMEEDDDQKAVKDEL
Experimental: MTP activity was measured using an assay similar to one described by J. R. Wetterau and D. B. Zilversmit in Chemistry and Physics of Lipids (1985) 38, 205-222.
In order to prepare the donor and acceptor vesicles, the appropriate lipids in chloroform were put into a glass test tube and dried under a stream of nitrogen. A buffer containing 15 mM Tris-HCl (pH 7.5), 1 mM ethylenediamine tetra-acetic acid, 40 mM NaCl, 0.02% NaN3 (assay buffer) was added to the dried lipid. The mixture was vortexed briefly and the lipids were then allowed to hydrate for 20 minutes on ice. Vesicles were then prepared by bath sonication (using a Branson 2200 device) at room temperature for at most 15 minutes. Butylated hydroxytoluene was included in all vesicle preparations at a concentration of 0.1%. The lipid transfer assay mixture contained donor vesicles (40 nmole phosphatidylcholine, 7.5 mole % cardiolipin and 0.25 mole % glycerol tri[1-^14C]-oleate), acceptor vesicles (240 nmol phosphatidylcholine) and 5 mg bovine serum albumin in a total volume of 675 μl in a 1.5 ml microcentrifuge tube. Test compound was added dissolved in dimethylsulfoxide (0.13% final concentration). After 5 minutes of pre-incubation at 37° C., the reaction was started by the addition of MTP in 100 μl of a dialysis buffer. The reaction was stopped by the addition of 400 μl […] (DEAE)-52 cellulose (Sephadex) pre-equilibrated in 15 mM Tris-HCl (pH 7.5), 1 mM ethylenediamine tetra-acetic acid and 0.02% NaN3 (1:1 volume/volume). The mixture was agitated for 4 minutes and centrifuged for 2 minutes at maximum speed in an Eppendorf centrifuge (4° C.) to pellet the DEAE-52-bound donor vesicles. An aliquot of the supernatant containing the acceptor liposomes was counted and the [^14C]-counts were used to calculate the percent triglyceride transfer from donor to acceptor vesicles.
Representative compounds of the present invention were measured for binding against the MTP receptor, as described above, with results as listed in Table 2 below.

Kb (hY2): 2.69 nM | Ki (mouse Y2 receptor): 4.47 nM | IC50 (MTP): 794 nM
Structure (SMILES): CCN(CC)C(=O)C(c1ccccc1)N1CCN(c2ccc(NC(=O)c3ccccc3-c3cccnc3)cc2F)CC1 (racemic) [Cmpd (A), N-{4-[4-(Diethylcarbamoyl-phenyl-methyl)-piperazin-1-yl]-3-fluoro-phenyl}-2-pyridin-3-yl-benzamide]
